“And” between values parts separate entries of the source, which are not always exact repeats. Identical values can stand only once.
Test system: human lung cancer cell line (A549)
Assay: Global gene expression analysis (Affymetrix gene chips) after NVX-207 treatment
Type: cell-based
Protocol: For global gene expression analysis, total RNA was isolated from sub-confluent cell cultures at 4 and 14 hours after addition of NVX-207. […] For each time point and concentration, respectively, total RNA form 3 equally treated cultures was pooled and used for gene chip analysis. The experiment was repeated once. Four and 14 hours after addition of NVX-207, cells were washed with PBS and lysed directly in the culture dish with RNA-Bee according to the manufacturers instructions. Total RNA was then analyzed by using Affymetrix gene chips according to the manufacturers instructions.

Question: Which “expression of the Table 1 genes with a functional role in lipid and/or glucose metabolism” value (20 listed genes incl. LDL receptor, Insulin induced gene 1, 3-hydroxy-3-methylglutaryl-Coenzyme A reductase) does the source give for C=C(C)[C@@H]1CC[C@]2(C(=O)OCC(N)(CO)CO)CC[C@]3(C)[C@H](CC[C@@H]4[C@@]5(C)CC[C@H](OC(C)=O)C(C)(C)[C@@H]5CC[C@]43C)[C@@H]12 [NVX-207] here?
Answer: NVX-207-Upregulated Genes with a Functional Role in Lipid

Question: What about the Fold-Induction (gene: 3-hydroxy-3-methylglutaryl-Coenzyme A synthase 1 (soluble)) of the same compound?
Answer: 1.63

Question: What about the Fold-Induction (gene: 24-dehydro-cholesterol reductase) of the same compound?
Answer: 1.25

Question: And the Fold-Induction (gene: 216814_at)?
Answer: 0.86

Question: What about the Fold-Induction (gene: ALEX3 protein) of the same compound?
Answer: 1.20

Question: And the Fold-Induction (gene: ATP synthase, H+ transporting, mitochondrial F0 complex, subunit s (factor B))?
Answer: 0.87

Question: What about the Fold-Induction (gene: Acetyl-Coenzyme A acetyltransferase 2 (acetoacetyl Coenzyme A thiolase)) of the same compound?
Answer: 1.44

Question: And the Fold-Induction (gene: Adenylate cyclase 9)?
Answer: 1.50

Question: What about the Fold-Induction (gene: Ankyrin repeat domain 6) of the same compound?
Answer: 1.48

Question: And the Fold-Induction (gene: Apoptosis inhibitor 5)?
Answer: 1.21

Question: And the Fold-Induction (gene: Choline kinase)?
Answer: 1.16

Question: And the Fold-Induction (gene: Chromosome 22 open reading frame 20)?
Answer: 1.56

Question: And the Fold-Induction (gene: Cyclic nucleotide gated channel alpha 1)?
Answer: 0.79

Question: And the Fold-Induction (gene: D15F37 (pseudogene))?
Answer: 1.39

Question: And the Fold-Induction (gene: DEAD (Asp-Glu-Ala-Asp) box polypeptide 54)?
Answer: 0.66

Question: What about the Fold-Induction (gene: Exportin 6) of the same compound?
Answer: 0.89

Question: And the Fold-Induction (gene: Farnesyl-diphosphate farnesyltransferase 1)?
Answer: 1.89

Question: And the Fold-Induction (gene: Fatty-acid-Coenzyme A ligase, long-chain 3)?
Answer: 1.31

Question: And the Fold-Induction (gene: Glyoxalase I)?
Answer: 1.12

Question: What about the Fold-Induction (gene: H63 breast cancer expressed gene) of the same compound?
Answer: 0.66

Question: And the Fold-Induction (gene: HMT1 hnRNP methyltransferase-like 1)?
Answer: 0.62

Question: And the Fold-Induction (gene: Haspin)?
Answer: 0.92

Question: And the Fold-Induction (gene: Heterogeneous nuclear ribonucleoprotein A2/B1)?
Answer: 1.30

Question: And the Fold-Induction (gene: Homeo box B2)?
Answer: 1.26

Question: And the Fold-Induction (gene: Homo sapiens cDNA FLJ11590 fis, clone HEMBA1003758.)?
Answer: 1.56

Question: And the Fold-Induction (gene: Homo sapiens cDNA FLJ12075 fis, clone HEMBB1002425.)?
Answer: 1.50

Question: And the Fold-Induction (gene: Homo sapiens cDNA FLJ12932 fis, clone NT2RP2004897.)?
Answer: 1.55

Question: And the Fold-Induction (gene: Homo sapiens cDNA FLJ13272 fis, clone OVARC1001004.)?
Answer: 1.58

Question: What about the Fold-Induction (gene: Homo sapiens cDNA FLJ26120 fis, clone SYN00419) of the same compound?
Answer: 2.26

Question: And the Fold-Induction (gene: Homo sapiens cDNA FLJ33420 fis, clone BRACE2020028.)?
Answer: 1.41

Question: What about the Fold-Induction (gene: Homo sapiens cDNA FLJ46153 fis, clone TESTI4001037) of the same compound?
Answer: 0.81

Question: And the Fold-Induction (gene: Homo sapiens cDNA: FLJ23159 fis, clone LNG09628)?
Answer: 1.44

Question: And the Fold-Induction (gene: Homo sapiens full length insert cDNA clone ZE03A06)?
Answer: 0.70

Question: What about the Fold-Induction (gene: Homo sapiens mRNA, cDNA DKFZp586O031 (from clone DKFZp586O031)) of the same compound?
Answer: 1.13

Question: And the Fold-Induction (gene: Homo sapiens mRNA, cDNA DKFZp686L01105 (from clone DKFZp686L01105))?
Answer: 2.37 and 2.09 and 1.73

Question: What about the Fold-Induction (gene: Homo sapiens mRNA, cDNA DKFZp779K0112 (from clone DKFZp779K0112)) of the same compound?
Answer: 1.48

Question: And the Fold-Induction (gene: Homo sapiens transcribed sequence with weak similarity to protein ref: NP_060265.1)?
Answer: 1.46 and 1.22

Question: What about the Fold-Induction (gene: Homo sapiens, clone IMAGE: 5314747, mRNA) of the same compound?
Answer: 1.77

Question: And the Fold-Induction (gene: Homo sapiens, clone IMAGE: 6205812, mRNA)?
Answer: 1.85

Question: What about the Fold-Induction (gene: Hypothetical protein BC008207) of the same compound?
Answer: 0.86

Question: What about the Fold-Induction (gene: Hypothetical protein DKFZp761A132) of the same compound?
Answer: 0.70

Question: And the Fold-Induction (gene: Hypothetical protein FLB8034 PRO2158)?
Answer: 1.45

Question: And the Fold-Induction (gene: Hypothetical protein FLJ10997 (ZNF654 zinc finger protein 654 [Homo sapiens]))?
Answer: 1.16

Question: What about the Fold-Induction (gene: Hypothetical protein FLJ11577) of the same compound?
Answer: 1.35

Question: What about the Fold-Induction (gene: Hypothetical protein FLJ13611) of the same compound?
Answer: 1.39

Question: What about the Fold-Induction (gene: Hypothetical protein FLJ14639) of the same compound?
Answer: 1.24

Question: And the Fold-Induction (gene: Hypothetical protein FLJ38499)?
Answer: 1.32

Question: What about the Fold-Induction (gene: Hypothetical protein LOC125893) of the same compound?
Answer: 1.34

Question: And the Fold-Induction (gene: Hypothetical protein LOC126661)?
Answer: 1.49

Question: And the Fold-Induction (gene: Hypothetical protein LOC283680)?
Answer: 1.26

Question: What about the Fold-Induction (gene: Hypothetical protein MAC30) of the same compound?
Answer: 1.46

Question: What about the Fold-Induction (gene: Hypothetical protein MGC34695) of the same compound?
Answer: 1.61

Question: And the Fold-Induction (gene: Hypothetical protein PRO1496)?
Answer: 1.46

Question: What about the Fold-Induction (gene: Insulin induced gene 1) of the same compound?
Answer: 2.56

Question: What about the Fold-Induction (gene: Isopentenyl-diphosphate delta isomerase) of the same compound?
Answer: 1.78

Question: What about the Fold-Induction (gene: Jerky homolog-like (mouse)) of the same compound?
Answer: 1.23

Question: And the Fold-Induction (gene: KIAA0101 gene product)?
Answer: 1.23

Question: What about the Fold-Induction (gene: KIAA0335 gene product) of the same compound?
Answer: 1.38

Question: And the Fold-Induction (gene: KIAA1450 protein)?
Answer: 1.21

Question: What about the Fold-Induction (gene: Latrophilin 3) of the same compound?
Answer: 0.77

Question: And the Fold-Induction (gene: Lipin 1)?
Answer: 1.88

Question: And the Fold-Induction (gene: Low density lipoprotein receptor (familial hypercholesterolemia))?
Answer: 1.78

Question: And the Fold-Induction (gene: Machado-Joseph disease (spinocerebellar ataxia 39))?
Answer: 1.45

Question: What about the Fold-Induction (gene: Melan-A) of the same compound?
Answer: 0.60

Question: What about the Fold-Induction (gene: Mitochondrial ribosomal protein L30) of the same compound?
Answer: 1.42

Question: And the Fold-Induction (gene: Mucin 4, tracheobronchial)?
Answer: 0.79

Question: And the Fold-Induction (gene: Mucolipin 3)?
Answer: 1.39

Question: And the Fold-Induction (gene: Natural killer-tumor recognition sequence)?
Answer: 1.45 and 1.28

Question: What about the Fold-Induction (gene: Neurolysin (metallopeptidase M3 family)) of the same compound?
Answer: 1.41

Question: What about the Fold-Induction (gene: Nicotinamide nucleotide adenylyltransferase 2) of the same compound?
Answer: 0.73

Question: What about the Fold-Induction (gene: Pantothenate kinase 3) of the same compound?
Answer: 1.23

Question: And the Fold-Induction (gene: Phorbol-12-myristate-13-acetate-induced protein 1)?
Answer: 1.26

Question: And the Fold-Induction (gene: Phosphodiesterase 4A, cAMP-specific (phosphodiesterase E2 dunce homolog, Drosophila))?
Answer: 0.78

Question: And the Fold-Induction (gene: Pinin, desmosome associated protein)?
Answer: 1.17

Question: What about the Fold-Induction (gene: Protocadherin 11 Y-linked) of the same compound?
Answer: 1.37

Question: What about the Fold-Induction (gene: Putative translation initiation factor) of the same compound?
Answer: 1.14

Question: And the Fold-Induction (gene: Pyruvate dehydrogenase phosphatase isoenzyme 2)?
Answer: 1.40

Question: What about the Fold-Induction (gene: Receptor-interacting factor 1) of the same compound?
Answer: 1.10

Question: What about the Fold-Induction (gene: Ring finger protein 125 (T-cell RING activation protein 1, TRAC-1)) of the same compound?
Answer: 3.36

Question: And the Fold-Induction (gene: SKI-interacting protein)?
Answer: 1.10

Question: What about the Fold-Induction (gene: SOCS box-containing WD protein SWiP-1) of the same compound?
Answer: 1.20

Question: And the Fold-Induction (gene: SP140 nuclear body protein)?
Answer: 0.78

Question: And the Fold-Induction (gene: SPTF-associated factor 65 gamma)?
Answer: 0.69

Question: What about the Fold-Induction (gene: Solute carrier family 2 (facilitated glucose transporter), member 6) of the same compound?
Answer: 1.76

Question: What about the Fold-Induction (gene: Solute carrier family 7, (cationic amino acid transporter, y+ system) member 11) of the same compound?
Answer: 1.67

Question: And the Fold-Induction (gene: Squalene epoxidase)?
Answer: 1.60

Question: And the Fold-Induction (gene: Stearoyl-CoA desaturase (delta-9-desaturase))?
Answer: 1.41

Question: And the Fold-Induction (gene: Sterol-C4-methyl oxidase-like)?
Answer: 1.87

Question: And the Fold-Induction (gene: Sterol-C5-desaturase (ERG3 delta-5-desaturase homolog, fungal)-like)?
Answer: 1.37

Question: And the Fold-Induction (gene: Surfactant, pulmonary-associated protein B)?
Answer: 1.43

Question: What about the Fold-Induction (gene: Syntaxin 16) of the same compound?
Answer: 0.86

Question: And the Fold-Induction (gene: Thyroid hormone receptor interactor 11)?
Answer: 1.70

Question: And the Fold-Induction (gene: Tumor necrosis factor (ligand) superfamily, member 9)?
Answer: 1.47

Question: And the Fold-Induction (gene: Ubiquitin specific protease 6 (Tre-2 oncogene))?
Answer: 1.38

Question: What about the Fold-Induction (gene: Ubiquitin specific protease 32) of the same compound?
Answer: 1.25

Question: What about the Fold-Induction (gene: Zinc finger protein 226) of the same compound?
Answer: 1.46

Question: And the Fold-Induction (gene: Zinc finger protein 430)?
Answer: 1.24

Question: What about the “upregulation of INSIG-1” value (within 4 hours of the addition of NVX-207) of the same compound?
Answer: up to 3 fold
